{"source": "patent US12570661B2", "about": "“Isoform-specific aldehyde dehydrogenase inhibitors” (The Board of Trustees of the Leland Stanford Junior …, priority 2020, dated 2026)", "key": {"ALDH2": {"molecular_target": "T1, ALDH2 (Homo sapiens, UniProt P05091)", "T1 construct": "made in house", "T1 sequence (P05091 18-517)": "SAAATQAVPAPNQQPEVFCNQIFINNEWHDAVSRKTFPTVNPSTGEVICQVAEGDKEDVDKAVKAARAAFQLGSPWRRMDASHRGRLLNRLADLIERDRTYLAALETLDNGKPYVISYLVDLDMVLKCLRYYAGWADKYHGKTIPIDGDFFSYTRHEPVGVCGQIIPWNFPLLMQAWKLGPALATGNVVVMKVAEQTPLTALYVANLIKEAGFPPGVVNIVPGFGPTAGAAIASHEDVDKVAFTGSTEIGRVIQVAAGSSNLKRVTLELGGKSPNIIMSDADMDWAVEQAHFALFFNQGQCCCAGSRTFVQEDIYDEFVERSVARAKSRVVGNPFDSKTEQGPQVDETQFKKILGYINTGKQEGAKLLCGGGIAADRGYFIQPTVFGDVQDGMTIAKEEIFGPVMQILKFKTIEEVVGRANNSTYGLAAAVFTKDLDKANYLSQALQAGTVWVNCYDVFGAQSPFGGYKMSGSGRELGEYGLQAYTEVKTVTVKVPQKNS", "assay": "ALDH2 enzyme kinetics assay", "format": "biochemical", "details": "50-μM compound concentration", "protocol": "Cloning, expression, and purification of human recombinant ALDH1A1, ALDH1A3, ALDH2, ALDH3A1, ALDH3A2, ALDH4A1, ALDH5A1 and ALDH7A1 isozymes were conducted as described previously (Chen, C. H. et al. (2015) Proc. Natl. Acad. Sci. U.S.A. 112, 3074-3079). Human ALDH1A2 (Origene, SC109995) and ALDH1B1 (T. Hurley, Indiana University) plasmids were cloned into the pET-15b expression vector (Novagen, 69661-3) containing an N-terminal hexahistidine tag. The mitochondria-targeting sequence of ALDH1B1 was also removed. […] The protein concentration for each fraction was measured (500 μL elution volume was collected as one fraction and was immediately mixed with 500 μL glycerol. The protein concentration for each fraction was measured (600 nm Protein Assay Reagent; Thermo Fisher Scientific), and protein-containing fractions were diluted with an equal volume of glycerol and stored at −80° C. Samples from each step were also collected for SDS-PAGE gel analysis. For ALDH1B1 protein co-expression with chaperones, pET-15b-ALDH1B1 and GroEL/GroES (Addgene, plasmid pBB541) plasmids were co-transformed into competent BL21 E. coli cells, which were subsequently grown in 1 L of Luria-Bertani medium containing 100 μg/mL ampicillin and 50 μg/mL spectinomycin at 37° C. […]"}, "Hedgehog (Hh) signaling": {"test_system": "Hedgehog (Hh) signaling", "assay": "Hh pathway assay (Shh-LIGHT2 Gli-dependent luciferase reporter, NIH-3T3)", "format": "cell-based, murine", "details": "Mus musculus; read-out: IC50 in Hh pathway assays", "protocol": "NIH-3T3 cells stably transfected with Gli-dependent firefly luciferase reporter (Shh-LIGHT2 cells (Taipale, J. et al. (2000) Nature 406, 1005-1009) were seeded into 96-well plates at a density of 2×10^4 cells/well and cultured for 24 h. The cells were then cultured in low-serum (0.5% CS) media containing 100 U/mL penicillin, 100 μg/mL streptomycin, and 200 nM Smoothened agonist (SAG) (Chen, J. K. et al. (2002) Proc. Natl. Acad. Sci. U.S.A. 99, 14071-14076; Frank-Kamenetsky, M. et al. (2002) J. Biol. 1, 10) for 30 h. CellTiter AQueous One (20 μL/well; Promega) was added to the cells and incubated for 30 min at 37° C., and cell viabilities were measured as the 490-nm absorbance of the culture media using a Spectramax M2e microplate reader (Molecular Devices). The cells were then washed with PBS and incubated with Bright-Glo reagent (100 μL/well; Promega) for 5 min at room temperature. The resulting chemiluminescence was measured on a Veritas microplate luminometer (Turner BioSystems) and normalized to the CellTiter signal. The normalized luciferase activities for each compound treatment regimen were normalized further to the DMSO control, and dose-responsive curves were generated using Prism software (GraphPad)."}}, "data": [{"smiles": "COc1ccccc1-n1cc(-c2ccc(-c3ccccc3)cc2)[n+]2c1CCCCC2", "note": "[Imidazolium 2]", "values": [{"measurement": "inhibition of ALDH2 activity", "setting": "ALDH2", "value": "neither imidazolium 1 or 2 could inhibit ALDH2 activity"}, {"measurement": "IC50", "setting": "Hedgehog (Hh) signaling", "value": "~700", "unit": "nM"}]}]}
